# The source made the active and inactive calls. The calls are words filed in the database; no cut-off is given here.
# How the values were obtained:
# [1] = target: Sigma non-opioid intracellular receptor 1 (Rattus norvegicus, UniProt Q9R0C9); assay: Displacement of [3H]-(+)-pentazocine from sigma 1 receptor in rat brain by competition binding assay; assay type: tissue-based
# Rattus norvegicus = organism: Rattus norvegicus; assay: Selectivity ratio of Ki for sigma 1 receptor in rat brain to Ki for sigma 2 receptor in rat liver membrane; assay type: cell membranes
# [2] = Displacement of [3H]-DTG from sigma 2 receptor in rat liver membrane by competition binding assay in presence of dextrallorphan; assay type: cell membranes
# [3] = Cell cycle arrest in human DU145 cells assessed as accumulation at S phase at 30 uM after 24 hrs by propidium iodide staining-based flow cytometry (reference value: 38.6 %); assay type: functional; settings: DU-145
# [4] = Cell cycle arrest in human DU145 cells assessed as accumulation at G1 phase after 24 hrs by propidium iodide staining-based flow cytometry; assay type: functional; settings: DU-145
# [5] = Cell cycle arrest in human DU145 cells assessed as accumulation at G1 phase at 30 uM after 24 hrs by propidium iodide staining-based flow cytometry (reference value: 58.2 %); assay type: functional; settings: DU-145
# MCF7 [6] = assay: Antiproliferative activity against human MCF7 cells assessed as reduction in cell viability after 24 hrs by MTT assay; assay type: functional, cell-based; settings: MCF7, 24 h
# C6 = assay: Antiproliferative activity against rat C6 cells assessed as reduction in cell viability after 24 hrs by MTT assay; assay type: functional, cell-based; settings: C6, 24 h
# [7] = Antiproliferative activity against human DU145 cells assessed as reduction in cell viability after 24 hrs by MTT assay; assay type: functional, cell-based; settings: DU-145, 24 h
# [8] = Cell cycle arrest in human DU145 cells assessed as accumulation at S phase at 40 uM after 24 hrs by propidium iodide staining-based flow cytometry (reference value: 38.6 %); assay type: functional; settings: DU-145
# [9] = Cell cycle arrest in human DU145 cells assessed as accumulation at G1 phase at 40 uM after 24 hrs by propidium iodide staining-based flow cytometry (reference value: 58.2 %); assay type: functional; settings: DU-145
# [10] = Selectivity ratio of Ki for sigma 1 receptor in guinea pig brain membrane to Ki for sigma 2 receptor in rat liver membrane; assay type: cell membranes
# MCF7 [11] = assay: Antiproliferative activity against human MCF7 cells assessed as reduction in cell viability after 48 hrs by MTT assay; assay type: functional, cell-based; settings: MCF7, 48 h
# MDA-MB-435 [12] = assay: Induction of apoptosis in human MDA-MB-435 cells assessed as decreased phospho-Rb expression at 10 uM incubated for 24 hrs by Western blot analysis; assay type: functional, cell-based
# [13] = target: Sigma non-opioid intracellular receptor 1 (Cavia porcellus, UniProt Q60492); assay: Displacement of [3H]-(+)-pentazocine from sigma-1 receptor in guinea pig brain membrane by competition binding assay; assay type: cell membranes
# MDA-MB-435 [14] = assay: Induction of apoptosis in human MDA-MB-435 cells assessed as decreased cyclin D1 expression at 10 uM incubated for 24 hrs by Western blot analysis; assay type: functional, cell-based; settings: TDE = time-dependent effect
# [15] = Displacement of [3H]-DTG from sigma 2 receptor in rat brain by competition binding assay; assay type: tissue-based
# MDA-MB-435 [16] = assay: Induction of apoptosis in human MDA-MB-435 cells assessed as decreased cyclin B1 expression at 10 uM incubated for 24 hrs by Western blot analysis; assay type: functional, cell-based
# [17] = Cell cycle arrest in human DU145 cells assessed as accumulation at G1 phase at 15 to 25 uM after 24 hrs by propidium iodide staining-based flow cytometry (reference value: 58.2 %); assay type: functional; settings: DU-145
# Sequence of Sigma non-opioid intracellular receptor 1 (Rattus norvegicus, UniProt Q9R0C9) (Q9R0C9 whole entry): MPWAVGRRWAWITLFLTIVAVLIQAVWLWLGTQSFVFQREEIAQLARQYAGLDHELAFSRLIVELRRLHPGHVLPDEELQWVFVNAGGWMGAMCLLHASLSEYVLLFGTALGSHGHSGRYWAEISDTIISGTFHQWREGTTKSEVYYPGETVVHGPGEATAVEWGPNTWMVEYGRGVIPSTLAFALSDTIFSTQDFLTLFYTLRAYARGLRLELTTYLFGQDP
# Sequence of Sigma non-opioid intracellular receptor 1 (Cavia porcellus, UniProt Q60492) (Q60492 whole entry): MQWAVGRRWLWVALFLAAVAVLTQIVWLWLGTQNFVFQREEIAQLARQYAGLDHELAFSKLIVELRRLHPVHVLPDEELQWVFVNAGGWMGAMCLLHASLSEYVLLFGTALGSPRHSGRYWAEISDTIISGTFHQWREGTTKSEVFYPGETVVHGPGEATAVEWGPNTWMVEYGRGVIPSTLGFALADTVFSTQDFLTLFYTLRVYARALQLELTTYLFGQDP
SMILES,Ki [1],Ratio Ki (Rattus norvegicus),Ki [2],other results
N#CC1(c2ccccc2)CCN(CCCCc2cn(-c3ccc(F)cc3)c3ccccc23)CC1,2.58 nM,0.9,3.03 nM,
N#CC1(c2ccccc2)CCN(CCCCc2cn(-c3ccc(I)cc3)c3ccccc23)CC1,386 nM,20.9,18.5 nM,
COc1cc2c(cc1OC)CN(CCCCc1cn(-c3ccc(F)cc3)c3ccccc13)C2,256 nM,4.8,53.8 nM,Activity [3]: 19.3%; Activity [4]: Dose-dependent effect; Activity [5]: 80.5%; EC50 (MCF7 [6]): 17000 nM; EC50 (C6): 44100 nM; EC50 [7]: 26900 nM
COc1cc2c(cc1OC)CN(CCCCc1cn(-c3ccc(F)cc3)c3ccccc13)CC2,531 nM,10.8,49.2 nM,Activity [8]: 15.9%; Activity [4]: Dose-dependent effect; Activity [9]: 84.1%; Ratio Ki [10]: 260; EC50 (MCF7 [11]): 17800 nM; EC50 (MCF7 [6]): 20900 nM; EC50 (C6): 76500 nM; EC50 [7]: 28800 nM
COc1cc2c(cc1OC)CN(CCCCn1cc(CCF)c3ccccc31)CC2,493 nM,17.9,27.5 nM,
COc1cc2c(cc1OC)CN(CCCCn1cc(CCCF)c3ccccc31)CC2,263 nM,9.2,28.5 nM,
Fc1ccc(-n2cc(CCCCN3CCC4(CC3)OCc3ccccc34)c3ccccc32)cc1 [SIRAMESINE],,,3.08 nM,Activity (MDA-MB-435 [12]): Active; Ki [13]: 10.5 nM; Activity [4]: Dose-dependent effect; Activity (MDA-MB-435 [14]): tde; EC50 (MCF7 [11]): 12300 nM; EC50 (MCF7 [6]): 23600 nM; EC50 (C6): 43100 nM; IC50 [15]: 0.12 nM; EC50 [7]: 13900 nM; Activity (MDA-MB-435 [16]): Active; Activity [17]: 75.7%
FCCOc1ccc(N2CCN(CCCCc3cn(-c4ccc(F)cc4)c4ccccc34)CC2)cc1,614 nM,9,68 nM,
FCCOCCOCCOc1ccc(N2CCN(CCCCc3cn(-c4ccc(F)cc4)c4ccccc34)CC2)cc1,2160 nM,1.1,1880 nM,
FCCn1cc(CCCCN2CCC3(CC2)OCc2ccccc23)c2ccccc21,246 nM,5.6,44 nM,
FCCOCCOc1ccc(N2CCN(CCCCc3cn(-c4ccc(F)cc4)c4ccccc34)CC2)cc1,1110 nM,2.4,458 nM,
FCCOc1cccc(N2CCN(CCCCc3cn(-c4ccc(F)cc4)c4ccccc34)CC2)c1,257 nM,5.3,48.4 nM,
FCCc1cn(CCCCN2CCC3(CC2)OCc2ccccc23)c2ccccc12,11 nM,0.4,29.8 nM,
COc1cc2c(cc1OC)CN(CCCCC(=O)c1ccc(F)cc1)CC2,16.6 nM,1.3,12.4 nM,
